Results published in paper PMC3871529, “At a Supra-Physiological Concentration, Human Sexual Hormones Act as Quorum-Sensing Inhibitors” (PLoS ONE, 2013).

What was measured:
LasR = target: T1, LasR (Pseudomonas aeruginosa, UniProt P25084); experiment: E. coli bioindicator expressing LasR (pAL105, lasI::luxCDABE luminescence); assay type: cell-based; conditions: OC12-HSL 100 µM; QSIs at 0.1 mg/ml, naringenin and naringin at 0.5 mg/ml
T1 construct: expressed in transfected cells; host or cells: Escherichia coli JLD271 carrying pAL105 (pSB401-derivative, lasR+ lasI::luxCDABE)
T1 sequence (P25084 whole entry): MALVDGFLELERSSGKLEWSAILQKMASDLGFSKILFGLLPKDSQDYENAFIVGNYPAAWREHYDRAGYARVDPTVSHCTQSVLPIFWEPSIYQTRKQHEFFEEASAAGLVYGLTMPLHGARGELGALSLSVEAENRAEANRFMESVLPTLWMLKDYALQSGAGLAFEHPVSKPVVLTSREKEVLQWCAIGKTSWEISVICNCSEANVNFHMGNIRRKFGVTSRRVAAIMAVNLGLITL
Experimental: We determined whether the AHL-binding transcriptional factors LasR and RhlR were impaired in their capacity to activate expression of the QS-regulated genes in the presence of various QSIs. This was achieved by using two E. coli bioindicator strains expressing either LasR or RhlR proteins and harboring an appropriate reporter lux operon for measuring their transcriptional activity in the presence of OC12-HSL at 100 µM and C4-HSL at 10 µM, respectively. Adding C4-HSL to the pAL101-bioindicator or OC12-HSL to the pAL105-bioindicator induced the expression of the reporter lux operon and the consequent production of luminescence. In contrast, only background levels of luminescence were detected in control strains harboring the plasmids pAL102 or pAL106, which lacks the rhlR or lasR gene, respectively.
Figure 7 QSIs modulated activity of the AHL-sensors in P. aeruginosa. Luminescence of the reporting operon lux, expressed in relative light units (RLU/OD600), was measured in E. coli bioindicator strains harboring the LasR (A) and RhlR (B) AHL-sensing systems of P. aeruginosa in the presence of […]. The QSIs estradiol, estrone, estriol and hordenine were added at 0.1 mg/ml, while naringenin and naringin, added at 0.5 mg/ml, were used as QSI-reference and non-QSI reference, respectively. Each test (n = 6) was compared with the DMSO-condition using Student's t test. Asterisks indicate statistically different data (p value of ≤0.01).
Escherichia coli JLD271 biosensor strains harboring LasR- and RhlR-based plasmids pAL105 and pAL101 and control plasmids pAL106 (LasR^-) and pAL102 (RhlR^−) (Table 1) were prepared according to Vandeputte et al.. Briefly, these strains were grown in LB medium supplemented with tetracycline (10 µg/ml) and chloramphenicol (25 µg/ml) for 24 h. Then 50-µl portions of the cultures were subcultured in 1 ml of LB medium (the starting OD600 ranged between 0.02 and 0.025 corresponding to 5.10^6 CFU) supplemented with 10 µl of DMSO (1% [vol/vol] final), 10 µl of naringenin or naringin dissolved in DMSO (2 mM, final concentration), or 10 µl of the molecule to be tested. To induce the expression of the lux operon, 0, 1, 10 or […] of C4-HSL was added to pAL101 and pAL102, while OC12-HSL was added to pAL105 and pAL106. After incubation for 2 h at 37°C with agitation (175 rpm), 200 µl of culture was transferred to 96-well OptiPlate-96 F plates from Perkin-Elmer, and the luminescence of each sample was measured by using a TopCount NXT device from Perkin-Elmer. The LasR(pAL106) and RhlR(pAL102) biosensors were used for background subtraction, and the OD600 values were measured to account for the differences in cell density. All experiments were performed in six replicates. The statistical significance of each test was evaluated by conducting Student's t tests using the GraphPad Prism software, and p values ≤0.05 were considered significant. Naringenin (4′,5,7-trihydroxyflavanone), naringin (4′,5,7-trihydroxyflavanone 7-rhamnoglucoside), the AHLs OC12-HSL and C4-HSL were purchased from Sigma-Aldrich and dissolved freshly in 100% DMSO before use. Tested QSIs were dissolved in 100% DMSO before use.

[1] = system: QS-signal accumulation in P. aeruginosa; experiment: AHL (C4-HSL, OC12-HSL) quantification in P. aeruginosa cultures by mass spectrometry; assay type: cell-based, Pseudomonas aeruginosa; conditions: QSI at 0.5 mg/ml, 18-hour
Experimental: Figure 5 QSIs modulated QS-signal accumulation in P. aeruginosa. Growth kinetics (n = 6) of P. aeruginosa was measured (OD600) in the presence of the QSIs (estradiol, estrone, estriol, hordenine and 4-NPO) at 0.5 mg/ml using DMSO as a negative control. Cell counts were assessed (CFU/ml) at 8- and 18-hour, and C4-HSL and OC12-HSL concentration (µM) were determined in the bacterial cultures at 18-hour. Statistically different values (Student's t test with α = 0.01) are noted by asterisks.
QS gene transcription in P. aeruginosa PAO1 was monitored using PAO1 strains carrying various gene promoters fused to a lacZ reporter gene, as described in Vandeputte et al., 2010 and Table 1. PAO1 reporter strains were prepared according to Vandeputte et al.. Briefly, 18-hours-old liquid cultures (50 µl) were diluted in order to obtain a starting OD600 nm comprised between 0.02 and 0.03 in fresh LB medium supplemented with 50 mM MOPS pH 7.0 (1 ml), carbenicillin (300 µg/ml) and 10 µl of the QSIs to be tested (OD were measured using a SpectraMax M2 device from Molecular Devices). Test and control QSIs were diluted in 100% DMSO (resulting after addition to the growth medium in a 1% final concentration of DMSO). Cultures were incubated for 18 hours at 37°C with agitation. After incubation, cell densities were assessed spectrophotometrically (OD600 nm) and β-galactosidase assays were performed using the substrate o-nitrophenyl-β-D-galactopyranoside as described previously, [29]. Promoterless-lacZ fusions were used as controls. AHLs were quantified as described in Vandeputte et al.. All tests were performed in quintuplicates and three biological repetitions. The statistical significance of each test was evaluated by conducting Student's t tests and two-way ANOVA combined with the Tukey post-analysis test using the GraphPad Prism software and p values≤0.01 were considered significant.

[2] = system: QS-regulated Ti-plasmid transfer in A. tumefaciens; experiment: QS-regulated Ti-plasmid transfer (conjugation) assay; assay type: cell-based, Agrobacterium tumefaciens; conditions: QSI at 0.1 mg/ml, OC8-HSL 500 pM, 72 h at 24°C
Experimental: Figure 4 In vitro Ti plasmid transfer frequency in Agrobacterium. The Ti plasmid transfer frequencies were measured in the presence of QSI (A) and the four 1248-diastereoisomeres (B) at 0.1 mg/ml. Histograms represent the cell density of transconjugants (CFU/ml), while black diamonds and squares, those of the donor and recipient strains, respectively. Measurements were performed in quadruplicate and the experiment was repeated twice. The cell densities of transconjugants in the presence of QSI were compared to that of the control in the presence of DMSO with a Mann and Whitney test (α = 0.05). Statistically different values are noted by asterisks.
In A. tumefaciens, the transfer of the Ti-plasmid from a donor cell to a recipient one is controlled by QS. QSI were evaluated for their capacity to reduce plasmid transfer frequency in Agrobacterium. In the plasmid transfer assay, two modified Agrobacterium strains were used: a Ti-plasmid donor, which requires exogenous AHL to transfer a kanamycin-resistant (Km^r) Ti-plasmid, and a rifampicin-resistant (Rif^r) recipient strain, which is free of Ti-plasmid. Overnight cultures of the donor and recipient strains were mixed with 500 pM of oxo-octanoylhomoserine lactone (OC8-HSL) and 0.1 mg/ml of QSI in LBm medium. Each combination was repeated 4 times in microwell plates.

Row | Molecule | effect on LasR functionality (lux luminescence) (LasR) | C4-HSL concentration in cell cultures [1] | OC12-HSL concentration in cell cultures [1] | effect on Ti plasmid transfer frequency (words) [2] | effect on Ti plasmid transfer frequency (words) ([2]; listed as estrone) | effect on Ti plasmid transfer frequency (words) ([2]; listed as hordenine)
1 | 3-Hydroxy-13-methyl-6,7,8,9,11,12,13,14,15,17-decahydro-cyclopenta[a] phenanthren-16-one [Compound 729, reference compound] | significant impact | reduction | reduction | significantly reduce the plasmid transfer frequency by one order of magnitude | decreased the frequency | 
2 | CN(C)CCc1ccc(O)cc1 [Compound 3499, hordenine] | significant impact | reduction | reduction | significantly reduce the plasmid transfer frequency by one order of magnitude |  | decreased the frequency
3 | C[C@]12CC[C@@H]3c4ccc(O)cc4CC[C@H]3[C@@H]1C[C@@H](O)[C@@H]2O [Estriol, estriol] | significant impact | reduction | reduction | significantly reduce the plasmid transfer frequency by one order of magnitude |  | 
